Results: paper PMC12867150, “A fungi-derived cyclic peptide enhances Th9-mediated antitumor immunity by targeting ZAP70 and SREBP1” (The Journal of Clinical Investigation, 2025)
Several values for one entry are separate records, joined by “and”; a condition that tells them apart may be missing. Identical values can stand only once.

Assays:
Assay type in all cases: cell-based, mouse
[1] = tested on: lipid species of Th9 cells; assay: Untargeted lipidomics of Th9 cells (Figure 6B); details: day 4; result in words
Protocol: Comprehensive lipidomic profiling was performed using a liquid chromatography–mass spectrometry (LC-MS) platform. Briefly, samples were first subjected to protein precipitation and impurity removal to ensure metabolite integrity. Lipid species were then extracted using a solvent-based protocol optimized for broad lipid class coverage. LC-MS analysis was conducted in both positive and negative ionization modes to maximize lipid detection breadth. Mass spectrometry data, including MS and MS/MS spectra, were acquired using a high-resolution instrument. Lipid identification and quantification were performed using LipidSearch software (Thermo Fisher Scientific), which generated a lipid expression matrix for downstream statistical and pathway analysis.

Th0 cells = assay: Th0 polarization, IFN-γ by flow cytometry (Figure 1E)
Protocol: Naive CD4^+ T cells were isolated from the spleens of C57BL/6J or CD45.1^+ OT-II mice using the MojoSort Mouse CD4 Naive T Cell Isolation Kit (BioLegend, catalog 480040), following the manufacturer’s protocol. Purified cells were cultured in RPMI-1640 medium supplemented with 10% FBS, 1% penicillin-streptomycin, and 0.1% β-mercaptoethanol (Gibco, catalog 21985023).
T cell polarization was initiated under plate-bound anti-CD3 (2 μg/mL, clone 17A2, BioXCell, catalog BE0002) and soluble anti-CD28 (1 μg/mL, clone 37.51, BioXCell, catalog BE0015-1) stimulation, with the addition of cytokines and neutralizing antibodies specific to each subset. For Th9 cells, these included IL-4 (10 ng/mL, Peprotech, catalog 400-04), TGF-β (1 ng/mL, EPOTO Biotech, catalog HF-2021), anti–IL-12 (5 μg/mL, clone C17.8, BioXCell, catalog BE0051), and anti–IFN-γ (10 μg/mL, clone XMG1.2, BioXCell, catalog BE0055); for Th1 cells, these included IL-12 (10 ng/mL, GenScript, catalog Z03211-50) and anti–IL-4 (5 μg/mL, clone 11B11, BioXCell, catalog BE0045); for Th2 cells, these included IL-4 (50 ng/mL), anti–IFN-γ (20 μg /mL), anti–IL-12 (5 μg/mL), Th17 cells: IL-6 (20 ng/mL, EPOTO Biotech, catalog MF-1006), TGF-β (1 ng/mL), IL-1β (10 ng/mL, Peprotech, catalog AF-211-11B), anti–IFN-γ (10 μg/mL), anti–IL-12 (5 μg/mL), and anti–IL-4 (5 μg/mL); and for Tregs, these included TGF-β (3 ng/mL). […]

Th9 cells = assay: Seahorse extracellular acidification rate, glycolysis stress test (Figure 4B-D); set-up: basal glycolysis of seahorse extracellular flux: unit not given here
Protocol: After stimulation, cells were washed, resuspended in Seahorse XF assay medium (Agilent Technologies; pH 7.40–7.45, catalog 103576-100) and seeded at 5 × 10^5 cells per well in Seahorse XF96 microplates. Plates were centrifuged at 400 × g for 5 minutes to promote adherence and monolayer formation, and all conditions were tested in quadruplicate.
Glycolytic activity was measured on a Seahorse XFe96 Extracellular Flux Analyzer (Agilent Technologies) using the XFe96 Glycolysis Stress Test kit (Agilent Technologies, catalog 103020-100) per the manufacturer’s instructions. Sequential injections of glucose (10 mM), oligomycin (1 μM), and 2-deoxyglucose (2-DG; 50 mM) were administered to determine ECAR as a proxy for glycolytic function. A glycolytic index was calculated from ECAR values obtained before and after each injection.

[2] = tested on: chromatin accessibility in Th9 cells; assay: Bulk ATAC-seq of Th9 cells (Figure 3C, S3E); details: result in words
Excerpt: Raw FASTQ reads were subjected to quality control using Trim Galore to remove adapter sequences and low-quality bases. Cleaned reads were aligned to the GRCm38 mouse reference genome using Bowtie2. Low-quality alignments were filtered out using SAMtools, and PCR duplicates were removed using Sambamba to reduce technical artifacts. ENCODE blacklist regions were excluded using BEDtools. Read positions were adjusted using alignmentSieve, followed by sorting and indexing with SAMtools to generate BAM files. Peak calling was conducted using MACS3 to identify regions of open chromatin indicative of accessible regulatory elements.

[3] = EpA 10 μM, 4 days, result in words

## anteiso-C15 Leu7 surfactin [EpA]
[1]
  lipid species: global reduction in lipid species
Th0 cells; EpA 10 μM, individual replicates, n = 4
  IFN-γ expression under Th0 polarization: 31 and 32.2 and 35 and 26.8
Th0 cells; result in words
  effect on Th0 polarization: did not affect
Th9 cells; [3]
  basal and maximal ECAR: significantly elevated
  extracellular acidification rate (ECAR): marked increase
Th9 cells; Figure 4C, individual replicates, n = 6
  basal glycolysis of seahorse extracellular flux: 3.18 and 3.13 and 4.92 and 4.79 and 3.98 and 4.85
Th9 cells; Figure 4D, individual replicates, n = 6, in mpH/min (unit assumed)
  max glycolytic capacity of seahorse extracellular flux: 34.82 and 36.26 and 48.55 and 43.93 and 34.44 and 51.9
[2]
  Ifng accessibility and expression: further reduced
  Il9 locus accessibility and transcription: increased accessibility and transcription
  global chromatin accessibility: only modestly affected
